Results from patent publication EP0236477B1 (priority 1985, dated 1987).

Experiments:
[1] = cited from earlier work; for potency relative to naloxone: in vivo
[2] = Duration of opioid antagonistic activity (general statements); format: in vivo; conditions: intravenously injectable
[3] = plasma of a patient; cited from earlier work

SMILES	potency relative to naloxone [1]	duration of antagonistic activity [2]	time a pharmacologically active concentration can remain in the plasma [3]	potency as an antagonist relative to naltrexon ([1]; intravenous route)
O=C1CC[C@@]2(O)[C@H]3Cc4ccc(O)c5c4[C@@]2(CCN3CC2CC2)[C@H]1O5 [naltrexon, reference compound]	significantly more potent			
C=C1CC[C@@]2(O)[C@H]3Cc4ccc(O)c5c4[C@@]2(CCN3CC2CC2)[C@H]1O5 [6-methylene-6-desoxy-N-cyclopropylmethyl-14-hydroxydihydronormorphine]	significantly more potent	at least 6 hours	three days	about four times more potent
